Experimental data: ChEMBL document CHEMBL1201862, “PubChem BioAssay data set” (2004)
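All cell lines were grown in 96-well plates and treated with compound for 48 hours. At the GI50, growth is halved.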 The source made the active and inactive calls. Cut-off read from the data, not from the text of the source: active = GI50 up to about 1.1 µM and inactive = higher.

Tests used:
Experiment in all cases: NCI anticancer screen, dose series, 48 h
[1] = system: HOP-62
[2] = system: Hs-578T
[3] = system: MOLT-4
[4] = system: SK-MEL-2
[5] = system: UACC-62
[6] = system: SR
[7] = system: SF-268
[8] = system: HOP-92
[9] = system: HCT-15
[10] = system: K562
[11] = system: NCI-H23
[12] = system: MDA-MB-435
[13] = system: ACHN
[14] = system: UACC-257
[15] = system: EKVX
[16] = system: IGROV-1
[17] = system: OVCAR-4
[18] = system: U-251
[19] = system: NCI-H460
[20] = system: 786-0

Question: For `CC[C@H]1C=CCC[C@@]2(C[C@@H]3CC[C@@H]4[C@H](C(=O)OCCCCCCCCCCCCCCCC(=O)N(CCCN)CCCCN)[C@]5(CCC[C@@H](C)O5)NC(=[N+]34)N2)O1`, which GI50 [1] is on record?
Answer: 0.0415 µM (active)

Question: And the GI50 [2]?
Answer: 0.0875 µM (active)

Question: What about the GI50 [3] of the same molecule?
Answer: 0.0155 µM (active)

Question: And the GI50 [4]?
Answer: 0.0259 µM (active)

Question: And the GI50 [5]?
Answer: 0.0185 µM (active)

Question: And the GI50 [6]?
Answer: 0.0281 µM (active)

Question: And the GI50 [7]?
Answer: 0.0214 µM (active)

Question: What about the GI50 [8] of the same molecule?
Answer: 0.0224 µM (active)

Question: And the GI50 [9]?
Answer: 0.0479 µM

Question: What about the GI50 [10] of the same molecule?
Answer: 0.0299 µM (active)

Question: And the GI50 [11]?
Answer: 0.0724 µM (active)

Question: And the GI50 [12]?
Answer: < 0.01 µM (active)

Question: What about the GI50 [13] of the same molecule?
Answer: 0.0826 µM (active)

Question: And the GI50 [14]?
Answer: 0.0171 µM (active)

Question: What about the GI50 [15] of the same molecule?
Answer: 0.11 µM (active)

Question: And the GI50 [16]?
Answer: 0.0695 µM (active)

Question: What about the GI50 [17] of the same molecule?
Answer: 1.34 µM (inactive)

Question: And the GI50 [18]?
Answer: 0.0561 µM (active)

Question: What about the GI50 [19] of the same molecule?
Answer: 0.0301 µM (active)

Question: What about the GI50 [20] of the same molecule?
Answer: 0.0229 µM (active)

Question: How did the GI50 [1] turn out when `Cc1ccc(-c2cc(-c3ccc(Cl)cc3)nc(/N=C3\C(=O)N(CN4CCOCC4)c4ccc(Cl)cc43)n2)cc1` was run?
Answer: 20.3 µM (inactive)

Question: What about the GI50 [2] of the same molecule?
Answer: 24.3 µM (inactive)

Question: And the GI50 [3]?
Answer: 1.1 µM (active)

Question: What about the GI50 [4] of the same molecule?
Answer: 20.1 µM (inactive)

Question: And the GI50 [5]?
Answer: 19.8 µM (inactive)

Question: And the GI50 [6]?
Answer: 9.38 µM (inactive)

Question: What about the GI50 [7] of the same molecule?
Answer: 22.6 µM (inactive)

Question: And the GI50 [8]?
Answer: 17.9 µM (inactive)

Question: What about the GI50 [9] of the same molecule?
Answer: 23.2 µM

Question: What about the GI50 [10] of the same molecule?
Answer: 10.5 µM (inactive)

Question: And the GI50 [11]?
Answer: 19.6 µM (inactive)

Question: And the GI50 [12]?
Answer: 24.4 µM (inactive)

Question: What about the GI50 [13] of the same molecule?
Answer: 19.9 µM (inactive)

Question: What about the GI50 [14] of the same molecule?
Answer: 33.3 µM (inactive)

Question: What about the GI50 [15] of the same molecule?
Answer: 15.2 µM (inactive)

Question: And the GI50 [16]?
Answer: 13 µM (inactive)

Question: And the GI50 [17]?
Answer: 29.3 µM (inactive)

Question: What about the GI50 [18] of the same molecule?
Answer: 17.7 µM (inactive)

Question: What about the GI50 [19] of the same molecule?
Answer: 20.9 µM (inactive)

Question: What about the GI50 [20] of the same molecule?
Answer: 22 µM (inactive)

Question: What does the source list for `CN(C)CCNc1ccc2nnn3c4ccccc4c(=O)c1c23`?
Answer: GI50 [1]: 3.72 µM (inactive); GI50 [2]: 3.3 µM (inactive); GI50 [3]: 1.27 µM (inactive); GI50 [4]: 3.7 µM (inactive); GI50 [5]: 3.39 µM (inactive); GI50 [6]: 2.34 µM (inactive); GI50 [7]: 4.22 µM (inactive); GI50 [8]: 2.48 µM (inactive); GI50 [9]: 3.25 µM; GI50 [10]: 2.86 µM (inactive); GI50 [11]: 3.91 µM (inactive); GI50 [12]: 3.44 µM (inactive); GI50 [13]: 1.22 µM (inactive); GI50 [14]: 3.46 µM (inactive); GI50 [15]: 3.78 µM (inactive); GI50 [16]: 3.38 µM (inactive); GI50 [17]: 3.08 µM (inactive); GI50 [18]: 1.95 µM (inactive); GI50 [19]: 2.25 µM (inactive); GI50 [20]: 3.27 µM (inactive)

Question: Which GI50 [1] does the source give for `CCCCC[C@H]1CC=CC(=O)O1` here?
Answer: 17.3 µM (inactive)

Question: And the GI50 [2]?
Answer: 7.71 µM (inactive)

Question: What about the GI50 [3] of the same molecule?
Answer: 2.34 µM (inactive)

Question: And the GI50 [4]?
Answer: 5.43 µM (inactive)

Question: And the GI50 [5]?
Answer: 10.5 µM (inactive)

Question: And the GI50 [6]?
Answer: 2.03 µM (inactive)

Question: And the GI50 [7]?
Answer: 5.38 µM (inactive)

Question: What about the GI50 [8] of the same molecule?
Answer: 10.4 µM (inactive)

Question: What about the GI50 [9] of the same molecule?
Answer: 4.2 µM

Question: What about the GI50 [10] of the same molecule?
Answer: 5.48 µM (inactive)

Question: What about the GI50 [11] of the same molecule?
Answer: 17.9 µM (inactive)

Question: What about the GI50 [12] of the same molecule?
Answer: 7.33 µM (inactive)

Question: What about the GI50 [13] of the same molecule?
Answer: 7.13 µM (inactive)

Question: What about the GI50 [14] of the same molecule?
Answer: 12.1 µM (inactive)

Question: And the GI50 [15]?
Answer: 17.1 µM (inactive)

Question: And the GI50 [16]?
Answer: 5.27 µM (inactive)

Question: And the GI50 [17]?
Answer: 5.7 µM (inactive)

Question: And the GI50 [18]?
Answer: 8.3 µM (inactive)

Question: What about the GI50 [19] of the same molecule?
Answer: 5.35 µM (inactive)

Question: What about the GI50 [20] of the same molecule?
Answer: 3.1 µM (inactive)

Question: `O=C1c2ccccc2C(=O)N1CC1(C(=O)O)NCCS1(=O)=O` (stereo not given) was tested. Which GI50 [1] did it give?
Answer: > 100 µM (inactive)

Question: What about the GI50 [2] of the same molecule?
Answer: > 100 µM (inactive)

Question: And the GI50 [3]?
Answer: > 100 µM (inactive)

Question: And the GI50 [4]?
Answer: > 100 µM (inactive)

Question: And the GI50 [5]?
Answer: > 100 µM (inactive)

Question: What about the GI50 [6] of the same molecule?
Answer: > 100 µM (inactive)

Question: What about the GI50 [7] of the same molecule?
Answer: > 100 µM (inactive)

Question: And the GI50 [8]?
Answer: > 100 µM (inactive)

Question: What about the GI50 [9] of the same molecule?
Answer: > 100 µM

Question: And the GI50 [10]?
Answer: > 100 µM (inactive)

Question: What about the GI50 [11] of the same molecule?
Answer: > 100 µM (inactive)

Question: What about the GI50 [12] of the same molecule?
Answer: > 100 µM (inactive)

Question: And the GI50 [13]?
Answer: > 100 µM (inactive)

Question: And the GI50 [14]?
Answer: > 100 µM (inactive)

Question: And the GI50 [15]?
Answer: 91.4 µM (inactive)

Question: What about the GI50 [16] of the same molecule?
Answer: > 100 µM (inactive)

Question: And the GI50 [17]?
Answer: > 100 µM (inactive)

Question: What about the GI50 [18] of the same molecule?
Answer: > 100 µM (inactive)

Question: What about the GI50 [19] of the same molecule?
Answer: > 100 µM (inactive)

Question: What about the GI50 [20] of the same molecule?
Answer: > 100 µM (inactive)

Question: For `COc1ccc([C@@]23CCC(=O)C[C@@H]2N(C)CC3)cc1OC`, which GI50 [1] is on record?
Answer: > 100 µM (inactive)

Question: And the GI50 [2]?
Answer: > 100 µM (inactive)

Question: What about the GI50 [3] of the same molecule?
Answer: > 100 µM (inactive)

Question: What about the GI50 [4] of the same molecule?
Answer: > 100 µM (inactive)

Question: What about the GI50 [5] of the same molecule?
Answer: > 100 µM (inactive)

Question: And the GI50 [6]?
Answer: 66.2 µM (inactive)

Question: And the GI50 [7]?
Answer: > 100 µM (inactive)

Question: What about the GI50 [8] of the same molecule?
Answer: > 100 µM (inactive)

Question: And the GI50 [9]?
Answer: > 100 µM

Question: What about the GI50 [10] of the same molecule?
Answer: > 100 µM (inactive)

Question: And the GI50 [11]?
Answer: > 100 µM (inactive)

Question: And the GI50 [12]?
Answer: > 100 µM (inactive)

Question: What about the GI50 [13] of the same molecule?
Answer: > 100 µM (inactive)

Question: What about the GI50 [14] of the same molecule?
Answer: > 100 µM (inactive)

Question: What about the GI50 [15] of the same molecule?
Answer: > 100 µM (inactive)

Question: And the GI50 [16]?
Answer: > 100 µM (inactive)

Question: And the GI50 [17]?
Answer: > 100 µM (inactive)

Question: And the GI50 [18]?
Answer: > 100 µM (inactive)

Question: And the GI50 [19]?
Answer: > 100 µM (inactive)

Question: What about the GI50 [20] of the same molecule?
Answer: > 100 µM (inactive)
